Reference: patent US9850283B2, “Macrocyclic inhibitors of the PD-1/PD-L1 and CD80(B7-1)/PD-L1 protein/protein interactions” (BRISTOL-MYERS SQUIBB COMPANY, priority 2013, dated 2017)
pIC50: −log10 of the molar value. Like-named read-outs stand apart in the source and are kept apart here. Starred links: 1 amine or outer side, 2 acyl side, 3 side chain; linkers in the order of their positions; H or OH if unused. Positions of bridges follow the written chain, without caps; N, C: chain ends. Non-standard residues stand in square brackets, D forms with d. Residues, ends and D or L forms follow the SMILES beside them. ξ: configuration not given here. X13 = COc1ccc2c(O[C@@H]3C[C@@H](C(=O)[*:2])N([*:1])C3)nccc2c1; Phe(4-tBu) = CC(C)(C)c1ccc(C[C@H](N)C(=O)O)cc1; Bta = N[C@@H](Cc1csc2ccccc12)C(=O)O; ξPro(4R-OH) = O=C(O)C1C[C@@H](O)CN1; Hyp = O=C(O)[C@@H]1C[C@@H](O)CN1; NMeF = CN[C@@H](Cc1ccccc1)C(=O)O; AllylGly = C=CC[C@H](N)C(=O)O; NMeNle = CCCC[C@H](NC)C(=O)O; ξY = NC(Cc1ccc(O)cc1)C(=O)O; NMeA = CN[C@@H](C)C(=O)O; Orn = NCCC[C@H](N)C(=O)O; Dab = NCC[C@H](N)C(=O)O; Dap = NC[C@H](N)C(=O)O; ξP = O=C(O)C1CCCN1; ξC = NC(CS)C(=O)O; Sar = CNCC(=O)O

Legend:
[1] = biological target: T1, LK35.2-hPD-L1 cells / PE-labeled PD-1-Ig (Homo sapiens, UniProt Q9NZQ7); assay: LK35.2-hPD-L1 cell binding high-content screening assay; format: cell-based; conditions: cluster symbol, read-out: CBA IC50 cluster
T1 construct: expressed in transfected cells; host or cells: LK35.2 mouse B cell line
Summary of the method: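 Compound effect on PD-1/PD-L1 binding is measured by imaging cell-associated phycoerythrin signal. Human PD-1-Ig (PE on Ig tag, 1 nM final) is applied with compound to a murine B cell line overexpressing human PD-L1 for 1 h at 37 °C in serum-containing RPMI.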

Human PD-L1/PD-1 = biological target: T2, Human PD-L1/PD-1 (Homo sapiens, UniProt Q9NZQ7); assay: HTRF PD-1-Ig/PD-L1-His binding assay (human PD-L1); conditions: cluster symbol; read-out: HTRF IC50 cluster
T2 construct: made in house; host or cells: HEK293T
Summary of the method: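 Ig- and His-fused extracellular PD-1/PD-L1 binding in BSA/Tween-20 dPBS. HTRF with Eu anti-Ig (1 nM final) and APC anti-His (20 nM final).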

[2] = cell line of CBA not given (LK35.2-hPD-L1 or 293T-hPD-L1)
[3] = cell binding assay, cell line not given

T1 sequence (Q9NZQ7 19-290): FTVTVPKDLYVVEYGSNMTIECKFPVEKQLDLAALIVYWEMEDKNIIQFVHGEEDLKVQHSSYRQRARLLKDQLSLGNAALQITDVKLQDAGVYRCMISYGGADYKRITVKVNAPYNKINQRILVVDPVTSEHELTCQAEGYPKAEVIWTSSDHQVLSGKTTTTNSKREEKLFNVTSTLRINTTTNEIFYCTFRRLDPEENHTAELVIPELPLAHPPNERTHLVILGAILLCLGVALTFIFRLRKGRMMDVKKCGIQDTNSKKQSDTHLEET
T2 sequence (Q9NZQ7 with tags, fused parts or gaps): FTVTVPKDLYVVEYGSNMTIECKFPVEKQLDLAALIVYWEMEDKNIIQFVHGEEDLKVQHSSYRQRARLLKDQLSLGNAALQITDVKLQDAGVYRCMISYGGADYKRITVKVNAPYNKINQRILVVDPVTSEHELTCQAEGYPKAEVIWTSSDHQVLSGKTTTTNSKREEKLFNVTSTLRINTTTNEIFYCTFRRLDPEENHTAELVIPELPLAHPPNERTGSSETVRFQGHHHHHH

Row | SMILES | pIC50 [1, 2] | pIC50 (Human PD-L1/PD-1) | pIC50 [1, 3]
1 | CCCC[C@H]1C(=O)N(C)[C@@H](CCCC)C(=O)N[C@@H](CCN)C(=O)N[C@H](C(=O)NCC(N)=O)CSCC(=O)N[C@@H](Cc2ccc(O)cc2)C(=O)N(C)[C@@H](C)C(=O)N[C@@H](CC(=O)O)C(=O)N2CCC[C@H]2C(=O)N[C@@H](Cc2cnc[nH]2)C(=O)N[C@@H](CCC(N)=O)C(=O)N2C[C@H](O)C[C@H]2C(=O)N[C@@H](Cc2c[nH]c3ccccc23)C(=O)N[C@@H](CCN)C(=O)N[C@@H](Cc2c[nH]c3ccccc23)C(=O)N1C [Example 5046] ({CH2CO}-Y[NMeA]DPHQ[Hyp]W[Dab]W[NMeNle][NMeNle][Dab]CG-NH2; thioether N-14) |  | 8.17 to 9.41 | < 7.13
2 | CCCC[C@H]1C(=O)N(C)[C@@H](CCCC)C(=O)N[C@@H](CCCNC(=N)N)C(=O)N[C@H](C(=O)NCC(N)=O)CSCC(=O)N[C@@H](Cc2ccccc2)C(=O)N(C)[C@@H](C)C(=O)N[C@@H](CC(N)=O)C(=O)N2CCC[C@H]2C(=O)N[C@@H](CC(N)=O)C(=O)N[C@@H](CC(C)C)C(=O)N(C)CC(=O)N[C@@H](Cc2c[nH]c3ccccc23)C(=O)N[C@@H](CO)C(=O)N[C@@H](Cc2c[nH]c3ccccc23)C(=O)N1C [Example 1063] ({CH2CO}-F[NMeA]NPNL[Sar]WSW[NMeNle][NMeNle]RCG-NH2; thioether N-14) | < 7.13 | < 7.52 | 
3 | CCCC[C@H]1C(=O)N(C)[C@@H](CCCC)C(=O)N[C@@H](CC(C)C)C(=O)N[C@H](C(=O)NCC(N)=O)CSCC(=O)N[C@@H](Cc2ccc(O)cc2)C(=O)N(C)[C@@H](C)C(=O)N[C@@H](CC(N)=O)C(=O)N2CCC[C@H]2C(=O)N[C@@H](CN)C(=O)N[C@@H](CC(C)C)C(=O)N2C[C@H](Oc3nccc4cc(OC)ccc34)C[C@H]2C(=O)N[C@@H](Cc2c[nH]c3ccccc23)C(=O)N[C@@H](CCN)C(=O)N[C@@H](Cc2c[nH]c3ccccc23)C(=O)N1C [Example 6048] ({CH2CO}-Y[NMeA]NP[Dap]L[X13]W[Dab]W[NMeNle][NMeNle]LCG-NH2; thioether N-14) |  | 7.52 to 8.17 | 7.14 to 8.32
4 | CCCC[C@H]1C(=O)N(C)[C@@H](CCCC)C(=O)N[C@@H](CCCNC(=N)N)C(=O)N[C@H](C(=O)NCC(N)=O)CSCC(=O)N[C@@H](Cc2ccc(C(C)(C)C)cc2)C(=O)N(C)[C@@H](C)C(=O)N[C@@H](CC(N)=O)C(=O)N2CCC[C@H]2C(=O)N[C@@H](CN)C(=O)N[C@@H](CC(C)C)C(=O)N2C[C@H](O)C[C@H]2C(=O)N[C@@H](Cc2c[nH]c3ccccc23)C(=O)N[C@@H](CO)C(=O)N[C@@H](Cc2c[nH]c3ccccc23)C(=O)N1C [Example 7036] ({CH2CO}-[Phe(4-tBu)][NMeA]NP[Dap]L[Hyp]WSW[NMeNle][NMeNle]RCG-NH2; thioether N-14) |  | 7.52 to 8.17 | < 7.13
5 | CCCC[C@H]1C(=O)N(C)[C@@H](CCCC)C(=O)N[C@@H](CC(=O)O)C(=O)N[C@H](C(=O)NCC(N)=O)CSCC(=O)N[C@@H](Cc2ccc(O)cc2)C(=O)N(C)[C@@H](C)C(=O)N[C@@H](CC(=O)O)C(=O)N2CCC[C@H]2C(=O)N[C@@H](Cc2c[nH]cn2)C(=O)N[C@@H](CCCNC(=N)N)C(=O)N2C[C@H](O)CC2C(=O)N[C@@H](Cc2c[nH]c3ccccc23)C(=O)N[C@@H](CCCNC(=N)N)C(=O)N[C@@H](Cc2c[nH]c3ccccc23)C(=O)N1C (stereo partly drawn) [Example 1203] ({CH2CO}-Y[NMeA]DPHR[ξPro(4R-OH)]WRW[NMeNle][NMeNle]DCG-NH2; thioether N-14) | 8.33 to 9.80 | 7.52 to 8.17 | 
6 | CCCC[C@H]1C(=O)N(C)[C@@H](CCCC)C(=O)N[C@@H](CC(C)C)C(=O)N[C@H](C(=O)NCC(N)=O)CSCC(=O)N[C@@H](Cc2ccc(O)cc2)C(=O)N(C)[C@@H](C)C(=O)N[C@@H](CC(N)=O)C(=O)N2CCC[C@H]2C(=O)N[C@@H](Cc2c[nH]cn2)C(=O)N[C@@H](CCC(=O)O)C(=O)N2C[C@H](O)C[C@H]2C(=O)N[C@@H](Cc2c[nH]c3ccccc23)C(=O)N[C@@H](CCN)C(=O)N[C@@H](Cc2c[nH]c3ccccc23)C(=O)N1C [Example 5065] ({CH2CO}-Y[NMeA]NPHE[Hyp]W[Dab]W[NMeNle][NMeNle]LCG-NH2; thioether N-14) |  | 8.17 to 9.41 | 8.33 to 9.80
7 | CCCC[C@H]1C(=O)N(C)[C@@H](CCCC)C(=O)N[C@@H](CC(C)C)C(=O)N[C@H](C(=O)NCC(N)=O)CSCC(=O)N[C@@H](Cc2ccc(O)cc2)C(=O)N(C)[C@@H](C)C(=O)N[C@@H](CC(N)=O)C(=O)N2CCC[C@H]2C(=O)N[C@@H](CO)C(=O)N[C@@H](CC(C)C)C(=O)N2C[C@H](O)C[C@H]2C(=O)N[C@@H](Cc2c[nH]c3ccccc23)C(=O)N[C@@H](CCN)C(=O)N[C@@H](Cc2c[nH]c3ccccc23)C(=O)N1C [Example 5073] ({CH2CO}-Y[NMeA]NPSL[Hyp]W[Dab]W[NMeNle][NMeNle]LCG-NH2; thioether N-14) |  | 8.17 to 9.41 | 8.33 to 9.80
8 | CCCC[C@H]1C(=O)N(C)[C@@H](CCCC)C(=O)N[C@@H](CCCN)C(=O)N[C@H](C(=O)NCC(N)=O)CSCC(=O)N[C@@H](Cc2ccc(O)cc2)C(=O)N2CCC[C@H]2C(=O)N[C@@H](CC(=O)O)C(=O)N2CCC[C@H]2C(=O)N[C@@H](CN)C(=O)N[C@@H](CCC(=O)O)C(=O)N2C[C@H](O)C[C@H]2C(=O)N[C@@H](Cc2c[nH]c3ccccc23)C(=O)N[C@@H](CCN)C(=O)N[C@@H](Cc2csc3ccccc23)C(=O)N1C [Example 1193] ({CH2CO}-YPDP[Dap]E[Hyp]W[Dab][Bta][NMeNle][NMeNle][Orn]CG-NH2; thioether N-14) | 8.33 to 9.80 | 8.17 to 9.41 | 
9 | CCCC[C@H]1C(=O)N(C)[C@@H](CCCC)C(=O)N[C@@H](CCCNC(=N)N)C(=O)N[C@H](C(=O)NCC(=O)NCC(N)=O)CSCC(=O)N[C@@H](Cc2ccccc2)C(=O)N(C)[C@@H](C)C(=O)N[C@@H](CC(N)=O)C(=O)N2CCC[C@H]2C(=O)N[C@@H](Cc2cnc[nH]2)C(=O)N[C@@H](CC(C)C)C(=O)N(C)CC(=O)N[C@@H](Cc2c[nH]c3ccccc23)C(=O)N[C@@H](CO)C(=O)N[C@@H](Cc2c[nH]c3ccccc23)C(=O)N1C [Example 6001] ({CH2CO}-F[NMeA]NPHL[Sar]WSW[NMeNle][NMeNle]RCGG-NH2; thioether N-14) |  | 7.52 to 8.17 | 7.14 to 8.32

The next lines start with the values.

Row | pIC50 [1, 2] | pIC50 (Human PD-L1/PD-1) | pIC50 [1, 3] | SMILES
10 | 7.14 to 8.32 | 8.17 to 9.41 |  | CCCC[C@H]1C(=O)N2CCC[C@@H]2C(=O)N[C@@H](CCC(=O)O)C(=O)N[C@@H](C(C)C)C(=O)N(C)[C@@H](Cc2ccccc2)C(=O)N[C@@H](CN)C(=O)N2CCC[C@@H]2C(=O)N[C@@H](Cc2c[nH]c3ccccc23)C(=O)N[C@@H](Cc2ccc(O)cc2)C(=O)N[C@@H](CC(C)C)C(=O)N[C@H](C(=O)NCC(N)=O)CSCC(=O)N[C@@H](Cc2ccccc2)C(=O)N(C)[C@@H](Cc2ccccc2)C(=O)N1C [Example 3191] ({CH2CO}-F[NMeF][NMeNle][dP]EV[NMeF][Dap][dP]WYLCG-NH2; thioether N-13)
11 |  | 7.52 to 8.17 | 7.14 to 8.32 | C=CC[C@@H]1NC(=O)[C@H](Cc2c[nH]c3ccccc23)NC(=O)[C@@H]2CCCN2C(=O)[C@H](CC(C)C)NC(=O)[C@H](CN)NC(=O)[C@@H]2CCCN2C(=O)[C@H](CC(N)=O)NC(=O)[C@H](C)N(C)C(=O)[C@H](Cc2ccc(O)cc2)NC(=O)CSC[C@@H](C(=O)NCC(N)=O)NC(=O)[C@H](CC=C)NC(=O)[C@H](CCCC)N(C)C(=O)[C@H](CCCC)N(C)C(=O)[C@H](Cc2c[nH]c3ccccc23)NC1=O [Example 7022] ({CH2CO}-Y[NMeA]NP[Dap]LPW[AllylGly]W[NMeNle][NMeNle][AllylGly]CG-NH2; thioether N-14)
12 |  | 8.17 to 9.41 | 8.33 to 9.80 | CCCC[C@H]1C(=O)N(C)[C@@H](CCCC)C(=O)N[C@@H](CCCNC(=N)N)C(=O)NC(C(=O)NCC(N)=O)CSCC(=O)N[C@@H](Cc2ccc(O)cc2)C(=O)N(C)[C@@H](C)C(=O)N[C@@H](CC(N)=O)C(=O)N2CCC[C@H]2C(=O)N[C@@H](CO)C(=O)N[C@@H](CC(C)C)C(=O)N2CCC[C@H]2C(=O)N[C@@H](Cc2c[nH]c3ccccc23)C(=O)N[C@@H](CO)C(=O)N[C@@H](Cc2csc3ccccc23)C(=O)N1C (stereo partly shown) [Example 9072] ({CH2CO}-Y[NMeA]NPSLPWS[Bta][NMeNle][NMeNle]R[ξC]G-NH2; thioether N-14)
13 |  | 7.52 to 8.17 | 7.14 to 8.32 | CCCC[C@H]1C(=O)N(C)[C@@H](CCCC)C(=O)N[C@@H](C(C)C)C(=O)N[C@H](C(=O)NCC(N)=O)CSCC(=O)N[C@@H](Cc2ccccc2)C(=O)N(C)[C@@H](C)C(=O)N[C@@H](CC(N)=O)C(=O)N2CCC[C@H]2C(=O)N[C@@H](Cc2cnc[nH]2)C(=O)N[C@@H](CC(C)C)C(=O)N(C)CC(=O)N[C@@H](Cc2c[nH]c3ccccc23)C(=O)N[C@@H](CO)C(=O)N[C@@H](Cc2c[nH]c3ccccc23)C(=O)N1C [Example 5016] ({CH2CO}-F[NMeA]NPHL[Sar]WSW[NMeNle][NMeNle]VCG-NH2; thioether N-14)
14 | 8.33 to 9.80 | 8.17 to 9.41 |  | CCCC[C@H]1C(=O)N(C)[C@@H](CCCC)C(=O)N[C@@H](CCCNC(=N)N)C(=O)N[C@H](C(=O)NCC(N)=O)CSCC(=O)NC(Cc2ccc(O)cc2)C(=O)N(C)[C@@H](C)C(=O)N[C@@H](CC(N)=O)C(=O)N2CCCC2C(=O)N[C@@H](CN)C(=O)N[C@@H](CCC(=O)O)C(=O)N2CCC[C@H]2C(=O)N[C@@H](Cc2c[nH]c3ccccc23)C(=O)N[C@@H](CO)C(=O)N[C@@H](Cc2c[nH]c3ccccc23)C(=O)N1C (stereo partly shown) [Example 1091] ({CH2CO}-[ξY][NMeA]N[ξP][Dap]EPWSW[NMeNle][NMeNle]RCG-NH2; thioether N-14)
